Literature values, collected in US20210170044A1, “SYSTEMS AND METHODS FOR LYSOSOME INDUCED IMMUNOGENIC CELL DEATH” (Antigenesis LLC, priority 2017, published 2021).

System: advanced hepatocellular carcinoma
Details: patients with advanced hepatocellular carcinoma receiving 5-fluorouracil; pravastatin as well vs control group

## O=c1[nH]cc(F)c(=O)[nH]1 [5-fluoroucacil]
  median survival time: 9 months
